Measurements published in patent US11827629B2, “CDGSH iron sulfur domain 2 activators and use thereof” (National Health Research Institutes, priority 2021, dated 2023).
pEC50: −log10 of the molar value.

These molecules were tested on Cisd2 promoter with firefly luciferase reporter (assay: Cisd2-luciferase reporter assay in HEK293-CISD2 cells). Details: Homo sapiens, 24 hours incubation, luciferase luminescence.
Assay type: cell-based
Method: A typical in vitro screening method includes the following steps: (i) obtaining an initial level of Cisd2 in a batch of human embryonic kidney cells 293 (HEK-293 cells) that express Cisd2, (ii) treating the batch of HEK-293 cells with a compound of this invention, and (iii) analyzing the level of Cisd2 after the treatment, thereby determining the potency of the compound as a Cisd2 activator.
Compounds 1-109 were tested for increasing the level of Cisd2 in human embryonic kidney cells 293 (HEK293), a transfected cell line expressing Cisd2, using the Cisd2-luciferase reporter assay as follows.
The transfected HEK293 cells stably expressed Cisd2 promoter with firefly luciferase reporter (HEK293-CISD2). They were kept in Dulbecco's modified Eagle's medium (DMEM) (Gibco, New York, NY, USA). Culture medium was supplemented with 10% heat-inactivated fetal bovine serum (FBS), 2 mM L-Glutamine, 1 mM sodium pyruvate, 0.1% MEM Non-Essential Amino Acids, 1 ug/ml puromycin and 1% penicillin/streptomycin (HyClone, Logan, UT, USA). The cells were maintained at 37° C. in an incubator (Thermo Fisher Scientific, New York, NY, USA) with an atmosphere of 5% CO2. The stably transfected cells were seeded in 384-well plates at a density of 3×10^3 cells/well. After incubation with tested compounds at 37° C. for 24 hours, ONE-Glo™ Luciferase Assay System (Promega, Madison, WI, USA) was added at room temperature for 5 minutes to detect any luciferase activity. Luminescence intensity was registered using plate reader Victor^2V (PerkinElmer, Boston, MA, USA).
EC50 values in this table are presented in three classes, i.e., A: <1 μM, B: 1 μM-5 μM, and C: 5 μM-10 μM.

Row | SMILES | pEC50
1 | O=C(CCSc1ccccc1Cl)N1Cc2ccccc2C1 [Compound 78, 3-[(2-chlorophenyl)sulfanyl]-1-(1,3-dihydro-2H-isoindol-2-yl)propan-1-one] | > 6.00
2 | O=C(CCSc1ccccc1)N1Cc2ccccc2C1 [Compound 79, 1-(1,3-dihydro-2H-isoindol-2-yl)-3-(phenylsulfanyl)propan-1-one] | > 6.00
3 | O=C(C[S+]([O-])c1ccc(Cl)s1)N1Cc2ccccc2C1 (centres unmarked) [Compound 80, 2-[(5-chlorothiophen-2-yl)sulfinyl]-1-(1,3-dihydro-2H-isoindol-2-yl)ethanone] | 5.30 to 6.00
4 | O=C(C[S+]([O-])c1ccccc1Cl)N1Cc2ccccc2C1 (centres unmarked) [Compound 81, 2-[(2-chlorophenyl)sulfinyl]-1-(1,3-dihydro-2H-isoindol-2-yl)ethanone] | > 6.00
5 | O=C(C[S+]([O-])c1cccc(F)n1)N1Cc2ccccc2C1 (centres unmarked) [Compound 82, 1-(1,3-dihydro-2H-isoindol-2-yl)-2-[(6-fluoropyridin-2-yl)sulfinyl]ethanone] | > 6.00
6 | O=C(CC[S+]([O-])c1ccccc1Cl)N1Cc2ccccc2C1 (centres unmarked) [Compound 83, 3-[(2-chlorophenyl)sulfinyl]-1-(1,3-dihydro-2H-isoindol-2-yl)propan-1-one] | > 6.00
7 | O=C(CC[S+]([O-])c1ccccc1)N1Cc2ccccc2C1 (centres unmarked) [Compound 84, 1-(1,3-dihydro-2H-isoindol-2-yl)-3-(phenylsulfinyl)propan-1-one] | > 6.00
8 | O=C(CS(=O)(=O)c1ccccn1)N1Cc2ccc(O)cc2C1 [Compound 85, 1-(5-hydroxy-1,3-dihydro-2H-isoindol-2-yl)-2-(pyridin-2-ylsulfonyl)ethanone] | > 6.00
9 | O=C(CS(=O)(=O)c1cccc(F)c1)N1Cc2ccccc2C1 [Compound 86, 1-(1,3-dihydro-2H-isoindol-2-yl)-2-[(3-fluorophenyl)sulfonyl]ethanone] | > 6.00
10 | O=C(CS(=O)(=O)c1ccc(F)cc1)N1Cc2ccccc2C1 [Compound 87, 1-(1,3-dihydro-2H-isoindol-2-yl)-2-[(4-fluorophenyl)sulfonyl]ethanone] | > 6.00
11 | O=C(CS(=O)(=O)c1ccc(Cl)s1)N1Cc2ccccc2C1 [Compound 88, 2-[(5-chlorothiophen-2-yl)sulfonyl]-1-(1,3-dihydro-2H-isoindol-2-yl)ethanone] | > 6.00
12 | O=C(CS(=O)(=O)c1cc(F)ccc1F)N1Cc2ccccc2C1 [Compound 89, 2-[(2,5-difluorophenyl)sulfonyl]-1-(1,3-dihydro-2H-isoindol-2-yl)ethanone] | 5.00 to 5.30
13 | O=C(CS(=O)(=O)c1ccccc1F)N1Cc2ccccc2C1 [Compound 90, 1-(1,3-dihydro-2H-isoindol-2-yl)-2-[(2-fluorophenyl)sulfonyl]ethanone] | > 6.00
14 | O=C(CS(=O)(=O)c1ccc(F)cc1F)N1Cc2ccccc2C1 [Compound 91, 2-[(2,4-difluorophenyl)sulfonyl]-1-(1,3-dihydro-2H-isoindol-2-yl)ethanone] | > 6.00
15 | O=C(CS(=O)(=O)c1ccccc1F)N1Cc2ccc(F)cc2C1 [Compound 92, 1-(5-fluoro-1,3-dihydro-2H-isoindol-2-yl)-2-[(2-fluorophenyl)sulfonyl]ethanone] | > 6.00
16 | O=C(CS(=O)(=O)c1ccccc1)N1Cc2ccc(F)cc2C1 [Compound 93, 1-(5-fluoro-1,3-dihydro-2H-isoindol-2-yl)-2-(phenylsulfonyl)ethanone] | > 6.00

Row | SMILES | pEC50
17 | Cc1csc(S(=O)(=O)CC(=O)N2Cc3ccccc3C2)n1 [Compound 94, 1-(1,3-dihydro-2H-isoindol-2-yl)-2-[(4-methyl-1,3-thiazol-2-yl)sulfonyl]ethanone] | > 6.00
18 | O=C(CS(=O)(=O)c1ccccc1F)N1Cc2cc(F)c(F)cc2C1 [Compound 95, 1-(5,6-difluoro-1,3-dihydro-2H-isoindol-2-yl)-2-[(2-fluorophenyl)sulfonyl]ethanone] | > 6.00
19 | O=C(CS(=O)(=O)c1ccccc1)N1Cc2cccc(F)c2C1 [Compound 96, 1-(4-fluoro-1,3-dihydro-2H-isoindol-2-yl)-2-(phenylsulfonyl)ethanone] | > 6.00
20 | O=C(CS(=O)(=O)c1cccc(F)n1)N1Cc2ccccc2C1 [Compound 97, 1-(1,3-dihydro-2H-isoindol-2-yl)-2-[(6-fluoropyridin-2-yl)sulfonyl]ethanone] | > 6.00
21 | O=C(CS(=O)(=O)c1cccc(Cl)c1Cl)N1Cc2ccccc2C1 [Compound 98, 2-[(2,3-dichlorophenyl)sulfonyl]-1-(1,3-dihydro-2H-isoindol-2-yl)ethanone] | > 6.00
22 | O=C(CS(=O)(=O)c1ccccc1Cl)N1Cc2ccccc2C1 [Compound 99, 2-[(2-chlorophenyl)sulfonyl]-1-(1,3-dihydro-2H-isoindol-2-yl)ethanone] | > 6.00
23 | O=C(CS(=O)(=O)c1ccccn1)N1Cc2ccc(N3CCOCC3)cc2C1 [Compound 100, 1-[5-(morpholin-4-yl)-1,3-dihydro-2H-isoindol-2-yl]-2-(pyridin-2-ylsulfonyl)ethanone] | 5.30 to 6.00
24 | O=C(CS(=O)(=O)c1ccc(F)cn1)N1Cc2ccccc2C1 [Compound 101, 1-(1,3-dihydro-2H-isoindol-2-yl)-2-[(5-fluoropyridin-2-yl)sulfonyl]ethanone] | > 6.00
25 | Cn1ccc(S(=O)(=O)CC(=O)N2Cc3ccccc3C2)n1 [Compound 102, 1-(1,3-dihydro-2H-isoindol-2-yl)-2-[(1-methyl-1H-pyrazol-3-yl)sulfonyl]ethanone] | 5.30 to 6.00
26 | O=C(CS(=O)(=O)c1ncccc1F)N1Cc2ccccc2C1 [Compound 103, 1-(1,3-dihydro-2H-isoindol-2-yl)-2-[(3-fluoropyridin-2-yl)sulfonyl]ethanone] | > 6.00
27 | O=C(CS(=O)(=O)c1ncco1)N1Cc2ccccc2C1 [Compound 104, 1-(1,3-dihydro-2H-isoindol-2-yl)-2-(1,3-oxazol-2-ylsulfonyl)ethanone] | > 6.00
28 | O=C(CS(=O)(=O)c1ccc(C(F)F)s1)N1Cc2ccccc2C1 [Compound 105, 2-{[5-(difluoromethyl)thiophen-2-yl]sulfonyl}-1-(1,3-dihydro-2H-isoindol-2-yl)ethanone] | 5.00 to 5.30
29 | O=C(CCS(=O)(=O)c1ccccc1Cl)N1Cc2ccccc2C1 [Compound 106, 3-[(2-chlorophenyl)sulfonyl]-1-(1,3-dihydro-2H-isoindol-2-yl)propan-1-one] | > 6.00
30 | O=C(CCS(=O)(=O)c1ccccc1)N1Cc2ccccc2C1 [Compound 107, 1-(1,3-dihydro-2H-isoindol-2-yl)-3-(phenylsulfonyl)propan-1-one] | > 6.00
31 | O=C(CCS(=O)(=O)c1cccc(F)n1)N1Cc2ccccc2C1 [Compound 108, 1-(1,3-dihydro-2H-isoindol-2-yl)-3-[(6-fluoropyridin-2-yl)sulfonyl]propan-1-one] | 5.30 to 6.00
32 | O=C(CS(=O)(=O)c1ncco1)N1Cc2ccc(F)cc2C1 [Compound 109, 1-(5-fluoro-1,3-dihydro-2H-isoindol-2-yl)-2-(1,3-oxazol-2-ylsulfonyl)ethanone] | > 6.00
